Tests used:
PARP11 = PARP11 (Homo sapiens, UniProt Q9NR21); assay: PARP profiling, parsylation of immobilized histone; format: biochemical; conditions: IWR compounds 10 μM
Procedure: (§1) Performed by BPS Bioscience Inc., San Diego by following the BPS PARP or TNKS assay kit protocols. The enzymatic reactions were conducted in duplicate at room temperature for 1 hr in a 96 well plate coated with histone substrate. […] of reaction buffer (Tris.HCl, pH 8.0) contains NAD^+, biotinylated NAD^+, activated DNA, recombinant PARP enzyme and 10 μM of the test compound. […] After enzymatic reactions, 50 μL of Streptavidin-horseradish peroxidase was added to each well and the plate was incubated at room temperature for an additional 30 min. 100 μL of developer reagents were added to wells and luminescence was measured using a BioTek Synergy™ 2 microplate reader.

PARP6 = PARP6 (Homo sapiens, UniProt Q2NL67); assay: PARP profiling, parsylation of immobilized histone; format: biochemical; conditions: IWR compounds 10 μM
Sequence of PARP6 (Q2NL67 whole entry): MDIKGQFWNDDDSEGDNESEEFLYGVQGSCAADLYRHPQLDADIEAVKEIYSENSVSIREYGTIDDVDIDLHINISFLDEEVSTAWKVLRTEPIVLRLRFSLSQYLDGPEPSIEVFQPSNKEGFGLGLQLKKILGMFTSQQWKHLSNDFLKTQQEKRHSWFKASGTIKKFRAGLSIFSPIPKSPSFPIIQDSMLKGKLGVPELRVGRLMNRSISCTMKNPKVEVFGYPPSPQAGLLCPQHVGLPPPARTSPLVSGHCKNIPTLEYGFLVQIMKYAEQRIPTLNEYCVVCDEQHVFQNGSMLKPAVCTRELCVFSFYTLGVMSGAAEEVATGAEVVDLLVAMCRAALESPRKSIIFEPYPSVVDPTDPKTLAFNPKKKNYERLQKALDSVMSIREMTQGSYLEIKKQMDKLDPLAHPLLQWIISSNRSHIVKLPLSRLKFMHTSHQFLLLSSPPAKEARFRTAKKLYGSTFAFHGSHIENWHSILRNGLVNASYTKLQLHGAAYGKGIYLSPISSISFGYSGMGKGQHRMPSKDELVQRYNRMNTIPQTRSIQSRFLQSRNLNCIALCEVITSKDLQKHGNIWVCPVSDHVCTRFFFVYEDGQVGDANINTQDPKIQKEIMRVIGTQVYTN
Procedure: as §1

PARP1 = PARP1 (Homo sapiens, UniProt P09874); assay: PARP profiling, parsylation of immobilized histone; format: biochemical; conditions: IWR compounds 10 μM
Sequence of PARP1 (P09874 whole entry): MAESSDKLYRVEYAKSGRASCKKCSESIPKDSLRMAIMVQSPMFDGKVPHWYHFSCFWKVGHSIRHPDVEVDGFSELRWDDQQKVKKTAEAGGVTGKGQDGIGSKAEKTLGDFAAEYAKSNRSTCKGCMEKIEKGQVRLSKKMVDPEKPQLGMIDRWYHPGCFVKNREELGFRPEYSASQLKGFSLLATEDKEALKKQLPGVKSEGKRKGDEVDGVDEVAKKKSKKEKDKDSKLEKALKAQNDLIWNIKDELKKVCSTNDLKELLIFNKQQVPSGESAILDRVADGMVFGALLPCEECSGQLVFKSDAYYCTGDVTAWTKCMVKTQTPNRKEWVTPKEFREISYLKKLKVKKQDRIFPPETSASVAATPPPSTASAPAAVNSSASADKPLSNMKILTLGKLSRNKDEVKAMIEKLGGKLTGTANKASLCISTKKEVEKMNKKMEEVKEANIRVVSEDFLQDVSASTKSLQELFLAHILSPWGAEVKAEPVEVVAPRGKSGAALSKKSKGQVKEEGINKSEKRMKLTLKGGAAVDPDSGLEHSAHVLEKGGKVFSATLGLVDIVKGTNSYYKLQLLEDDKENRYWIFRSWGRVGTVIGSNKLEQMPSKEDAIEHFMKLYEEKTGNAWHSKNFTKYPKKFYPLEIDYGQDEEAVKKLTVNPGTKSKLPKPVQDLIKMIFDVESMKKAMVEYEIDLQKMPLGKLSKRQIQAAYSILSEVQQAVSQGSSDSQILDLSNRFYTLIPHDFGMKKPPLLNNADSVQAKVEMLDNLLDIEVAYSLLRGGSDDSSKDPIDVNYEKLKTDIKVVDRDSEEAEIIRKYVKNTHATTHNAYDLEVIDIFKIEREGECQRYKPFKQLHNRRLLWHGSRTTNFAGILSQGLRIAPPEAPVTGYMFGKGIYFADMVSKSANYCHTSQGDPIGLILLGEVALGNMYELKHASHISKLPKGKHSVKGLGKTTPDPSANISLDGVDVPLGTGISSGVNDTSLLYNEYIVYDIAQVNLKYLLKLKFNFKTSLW
Procedure: as §1

PARP7 = PARP7 (Homo sapiens, UniProt Q7Z3E1); assay: PARP profiling, parsylation of immobilized histone; format: biochemical; conditions: IWR compounds 10 μM
Sequence of PARP7 (Q7Z3E1 whole entry): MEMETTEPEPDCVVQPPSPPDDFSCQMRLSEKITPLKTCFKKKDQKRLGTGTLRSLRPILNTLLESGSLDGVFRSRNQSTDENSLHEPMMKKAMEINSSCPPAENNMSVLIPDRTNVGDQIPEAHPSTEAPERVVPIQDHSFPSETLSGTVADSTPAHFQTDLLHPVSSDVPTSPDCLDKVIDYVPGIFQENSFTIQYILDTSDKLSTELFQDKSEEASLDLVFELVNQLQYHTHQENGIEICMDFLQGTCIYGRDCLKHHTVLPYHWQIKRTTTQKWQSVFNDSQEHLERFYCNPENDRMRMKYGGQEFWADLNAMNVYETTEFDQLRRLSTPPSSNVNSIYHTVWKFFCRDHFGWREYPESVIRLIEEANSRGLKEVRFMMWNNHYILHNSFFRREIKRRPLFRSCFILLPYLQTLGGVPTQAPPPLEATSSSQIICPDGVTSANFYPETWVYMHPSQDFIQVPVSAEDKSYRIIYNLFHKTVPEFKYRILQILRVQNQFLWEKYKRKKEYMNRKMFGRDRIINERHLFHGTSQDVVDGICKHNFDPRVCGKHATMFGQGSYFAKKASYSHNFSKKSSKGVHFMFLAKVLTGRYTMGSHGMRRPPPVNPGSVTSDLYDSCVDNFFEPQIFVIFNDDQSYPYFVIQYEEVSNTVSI
Procedure: as §1

Tnks enzymes = conditions: cited from earlier work
[1] = system: panel of recombinant PARP proteins; assay: Overall specificity in panel of recombinant PARP proteins; format: biochemical; conditions: 10 μM, panel covers 70% of the protein family
Procedure: as §1
The higher level of conservation between the NI-binding pocket in PARPs as compared to the AD-binding pocket likely imposes greater challenges to achieving specificity with NI-binding pocket inhibitors (Wahlberg, et al., 2012). […] At the same time, the discovery of structurally distinct chemicals both capable of binding the AD-binding pocket in a similar fashion (IWR-1 and IWR-8) afforded an opportunity to evaluate the strength of this hypothesis.

zebrafish = assay: Zebrafish caudal fin regeneration after chemical removal; format: in vivo; conditions: resected caudal fins, water containing compound for 7 d, then removal
Description: Achieving transient repression of pathological Wnt response without incurring permanent damage to normal stem cell function is a key anticancer therapeutic goal.

[2] = system: β-catenin activity in DLD-1 cells; assay: Wnt/β-catenin specific luciferase reporter (SuperTopFlash) in DLD-1 cells; format: cell-based; conditions: FIG. 2B
Procedure: Representative IWRs from each chemotype were evaluated for their ability to inhibit purified recombinant Tnks1 protein (Tnks1 […] protein). Parsylation of immobilized histone protein was determined by colorimetric detection of incorporated biotinylated NAD+ in 96 well format.
Luciferase Reporter Assays.
Assays were executed as described using a Dual Luciferase kit (Promega), and SuperTopFlash and control SV40-driven Renilla luciferase reporters (SV40-Ren luc) (Chen, et al., 2009).

[3] = biological target: T1, catalytic domain of human Tnks1 (Homo sapiens, UniProt O95271); assay: Crystal structures of IWR compound/Tnks1 complexes, binding pocket; conditions: crystal structure, FIGS. 3A-3C
T1 construct: The catalytic domain of human Tnks1 (residues 1105-1313) was expressed; His6 (with TEV site) (N, cleaved yes); made in house; host or cells: E. coli BL21 (DE3)
T1 sequence (O95271 1105-1313): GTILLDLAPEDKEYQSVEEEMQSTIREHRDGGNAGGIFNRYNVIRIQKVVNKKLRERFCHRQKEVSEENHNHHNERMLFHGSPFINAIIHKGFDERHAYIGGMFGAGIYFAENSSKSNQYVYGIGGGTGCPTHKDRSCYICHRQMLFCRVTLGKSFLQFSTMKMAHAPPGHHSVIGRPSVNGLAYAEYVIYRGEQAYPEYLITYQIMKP
Procedure: Protein Expression and Purification.
The catalytic domain of human Tnks1 (residues 1105-1313) was expressed by using a modified pET28 vector, which encodes an N-terminal His6-tag and a cleavage site for the Tobacco Etch Virus (TEV) protease. Protein expression was induced by 0.1 mM IPTG at 15° C. when the culture of the bacteria strain BL21 (DE3) transformed with the plasmid reached O.D. of 1.5. Cells were harvested 12 hrs after induction and lysed by Frenchpressing. The lysate was cleared by centrifugation at 15000 rpm for 1 hr. The protein was purified by Ni-NTA-based affinity chromatography and ion exchange chromatography. The N-terminal His6-tag was removed by overnight TEV protease treatment at 4° C. Purified protein was concentrated and stored in −80° C.
Crystallization, Data Collection and Structure Determination.
The purified Tnks1 catalytic domain at 5 mg/mL (0.22 mM) mixed with IWR-1 (the exo-form), IWR-3 and IWR-8 at 0.25 mM were subjected to crystallization trials by using sitting-drop 96-well plates. Following initial hits of crystallization, large crystals were obtained by hanging-drop vapor diffusion in conditions optimized based on the initial conditions. Crystals of the Tnks1/IWR-1 complex were grown at 20° C. in 0.1 M Bis-Tris (pH 5.3), 0.15 M MgCl2 and 20-23% PEG3350. […]

SW403 cells = assay: Cell growth of SW403 cells; format: cell-based; conditions: FIG. 2C

Sequence of PARP11 (Q9NR21 whole entry): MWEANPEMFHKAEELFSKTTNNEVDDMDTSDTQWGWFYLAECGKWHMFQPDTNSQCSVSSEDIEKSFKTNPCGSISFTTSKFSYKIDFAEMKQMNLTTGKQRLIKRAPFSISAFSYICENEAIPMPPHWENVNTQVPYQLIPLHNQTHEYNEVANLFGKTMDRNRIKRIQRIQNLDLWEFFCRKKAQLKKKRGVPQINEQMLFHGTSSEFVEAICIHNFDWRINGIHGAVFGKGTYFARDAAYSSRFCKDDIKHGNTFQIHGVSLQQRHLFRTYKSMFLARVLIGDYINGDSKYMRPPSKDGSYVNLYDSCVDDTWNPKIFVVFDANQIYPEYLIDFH

Structure (SMILES)	% inhibition (PARP11) [%]	% inhibition (PARP6) [%]	% inhibition (PARP1) [%]	% inhibition (PARP7) [%]	specificity for Tnks enzymes over several other PARPs compared to XAV-939 (Tnks enzymes) [fold]	specificity/selectivity across PARP panel [1]	fin regeneration after chemically induced blockade (zebrafish)	inhibition at 10 µM (PARP11) [%]	inhibition at 10 µM (PARP6) [%]	inhibition at 10 µM (PARP1) [%]	inhibition at 10 µM (PARP7) [%]	β-catenin activity induced by loss of APC function [2]	binding pocket engaged in Tnks1 [3]	cell growth in a cancer cell line with compromised APC function (SW403 cells)
O=C(Nc1cccc2cccnc12)c1ccc(N2C(=O)[C@@H]3[C@H](C2=O)[C@@H]2C=C[C@H]3C2)cc1 [IWR-1]	2	0	0	7	~100	highly specific	able to regenerate tissue to nearly normal levels after chemical removal							
CCN(C(=O)C1CCN(S(=O)(=O)c2cc3c(cc2Br)CCN3C(C)=O)CC1)c1cccc(C)c1 [IWR-8]						highly specific		12	0	0	8	inhibits β-catenin activity induced by loss of APC function	engage the AD pocket	inhibits cell growth
